Laboratory results as given in PubChem BioAssay (NCI).
Where “and” joins values, the source holds several entries; their conditions need not be identical. Equal entries are not always repeated.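 96-well plates; 48 h exposure; 5 concentrations. Endpoints by linear interpolation between flanking doses. Not reached: highest tested concentration assigned. The concentration for 50% growth inhibition is given as GI50. Definition used: TGI = concentration required for complete inhibition of growth.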

Tests used:
Experiment in all cases: NCI tumour cell line growth inhibition, 48 h
MCF7 breast = system: MCF7 breast
NCI-H460 lung = system: NCI-H460 lung
ACHN renal = system: ACHN renal
HOP-92 NSCLC = system: HOP-92 NSCLC
U251 CNS = system: U251 CNS
SF-295 CNS = system: SF-295 CNS
A549 NSCLC = system: A549 NSCLC
A498 renal = system: A498 renal
SK-OV-3 ovarian = system: SK-OV-3 ovarian
EKVX NSCLC = system: EKVX NSCLC

SMILES | GI50 (MCF7 breast) | TGI (MCF7 breast) | GI50 (NCI-H460 lung) | TGI (NCI-H460 lung) | GI50 (ACHN renal) | TGI (ACHN renal) | GI50 (HOP-92 NSCLC) | TGI (HOP-92 NSCLC) | GI50 (U251 CNS) | TGI (U251 CNS) | GI50 (SF-295 CNS) | TGI (SF-295 CNS) | GI50 (A549 NSCLC) | TGI (A549 NSCLC) | GI50 (A498 renal) | TGI (A498 renal) | GI50 (SK-OV-3 ovarian) | TGI (SK-OV-3 ovarian) | GI50 (EKVX NSCLC) | TGI (EKVX NSCLC)
O=C(Nc1cccc(C(F)(F)F)c1)c1ccc(NC2=C(Cl)C(=O)N(Cc3ccc(Cl)cc3Cl)C2=O)cc1 | 2.15 µM | 4.71 µM | 8.38 µM | 31 µM | 11.9 µM | 46.1 µM | 4.71 µM | 16.2 µM | 5.82 µM | 19 µM | 13 µM | 35 µM | 21.6 µM | 92.4 µM | 6.51 µM | 25.9 µM | 60.4 µM | > 100 µM | 20.3 µM | 48.6 µM
O=C(c1ccco1)c1c(C(F)(F)F)nc2ccc(Cl)cc2[n+]1[O-] | > 100 µM | > 100 µM | > 100 µM | > 100 µM | > 100 µM | > 100 µM | 44 µM | > 100 µM | > 100 µM | > 100 µM | > 100 µM | > 100 µM | > 100 µM | > 100 µM | 23.1 µM | 68 µM | > 100 µM | > 100 µM | 56.8 µM | > 100 µM
CCOC(=O)Nc1cc2c(c(N)n1)N=C(c1ccccc1)CO2 | 0.1 µM | 21 µM | 0.0659 µM | 5.26 µM | 0.986 µM | 31.7 µM | 7.13 µM | 29.1 µM | 0.183 µM | 14.3 µM | 0.224 µM | 14.2 µM | 0.167 µM | 13.8 µM | 0.147 µM | 6.92 µM | 0.289 µM | 9.4 µM | 0.409 µM | > 46 µM
Cc1nc(N)sc1N=Nc1ccccc1Br | – | 70.2 µM | – | > 67.4 µM | – | > 86 µM | – | 46.1 µM | – | 52.6 µM | – | 97.7 µM | – | > 100 µM | – | 43.2 µM | – | > 100 µM | – | 76.3 µM
NC(N)=N/N=C/c1c(Cl)cccc1Cl | 17.2 µM | 41.5 µM | 15.6 µM | 32.5 µM | 25.4 µM | > 100 µM | 6.66 µM | 32.7 µM | 16.3 µM | 33.7 µM | 12.4 µM | 30.2 µM | 27.4 µM | > 100 µM | 3.98 µM | 36.9 µM | 41.6 µM | > 100 µM | 15.9 µM | 47.5 µM
O=C(Nc1cc(C(F)(F)F)cc(C(F)(F)F)c1)c1cc(Cl)ccc1O | 0.302 µM and 0.269 µM | > 10 µM and 5.26 µM | 0.271 µM and 0.29 µM | 1.42 µM and 1.94 µM | 0.294 µM and 0.26 µM | 1.19 µM and 0.978 µM | 0.12 µM and 0.0412 µM | 0.418 µM and 0.304 µM | 0.234 µM and 0.228 µM | > 9.5 µM and 7.9 µM | 0.179 µM and 0.173 µM | 0.479 µM and 0.402 µM | 0.293 µM and 0.319 µM | > 4.32 µM and 12.8 µM | 0.045 µM and < 0.0141 µM | 0.241 µM and 0.178 µM | 0.185 µM and 0.181 µM | 0.642 µM and 0.947 µM | 0.295 µM and 0.288 µM | > 3.58 µM and 3.43 µM
NC(N)=NCCCC(=O)O | – | > 100 µM | – | > 100 µM | – | > 100 µM | – | > 100 µM | – | > 100 µM | – | > 100 µM | – | > 100 µM | – | > 100 µM | – | > 100 µM | – | > 100 µM
CC1(C)OC2C(CO[Si](C)(C)C(C)(C)C)OC(n3c(I)c(C#C[Si](C)(C)C)c(=O)[nH]c3=O)C2O1 (stereo not given) | 11.2 µM | 24.3 µM | 16.8 µM | 34.2 µM | 12.9 µM | 26.4 µM | 0.0445 µM | 14.1 µM | 19.4 µM | 65.7 µM | > 100 µM | > 100 µM | > 100 µM | > 100 µM | 32.2 µM | > 100 µM | > 100 µM | > 100 µM | 59.6 µM | > 100 µM
CCOc1ccc(/C=C2\N=C(c3ccc([N+](=O)[O-])cc3)OC2=O)cc1 | – | > 100 µM | – | > 100 µM | – | > 100 µM | – | > 100 µM | – | > 100 µM | – | > 100 µM | – | > 100 µM | – | > 100 µM | – | > 100 µM | – | > 100 µM
CCN(CC)CCNc1nc(N)c(C#N)c(C#N)c1C#N | – | > 10 µM | – | > 10 µM | – | > 10 µM | – | > 10 µM | – | > 10 µM | – | > 10 µM | – | > 10 µM | – | > 10 µM | – | > 10 µM | – | > 10 µM
